Experiments:
Assay type in all cases: in vivo
[1] = test system: sorghum; assay: Comprehensive test on growth regulation for sorghum by thidiazuron combined with brassinolide (plant height, stem diameter, 1000-grain weight, yield); settings: mixtures 4.3 mg/kg, thidiazuron 4 mg/kg
Description: (§1) 1. Comprehensive Test on Growth Regulation for Sorghum by Thidiazuron Combined with Brassinolide
(§2) The thidiazuron and brassinolide were diluted with acetone to give a series of concentrations, and the stems and leaves of crops were sprayed to determine the effect of each concentration on crop growth in the field, so as to make a comprehensive evaluation with respect to the plant height and diameter, the root length, the disease resistance, the quality of fruits, and the yield.
Plant height control rate=(Plant height in water control group-Plant height in treatment group)/Plant height in water control group*100%
Stem diameter increase rate=(Stem diameter in water control group-Stem diameter in treatment group)/Stem diameter in water control group*100%
Increase rate in 1000-grain weight=(1000-grain weight in water control group−1000-grain weight in treatment group)/1000-grain weight in water control group*100%
Increase rate in yield per mu=(Yield per mu in water control group−Yield per mu in treatment group)/Yield per mu in water control group*100%

[2] = test system: leaf blight of sorghum; assay: Disease index and prevention effect on leaf blight in the sorghum comprehensive test; settings: early tasselling stage, mixtures 4.3 mg/kg, thidiazuron 4 mg/kg, brassinolide 0.3 mg/kg
Description: as §1, §2
Prevention effect=(Disease index in water control group-Disease index in treatment group)/Disease index in water control group*100%

[3] = test system: oat; assay: Comprehensive field test on growth regulation and yield increase for oat by thidiazuron combined with brassinolide; settings: Examples 5.4 mg/kg, thidiazuron 5.0 mg/kg, brassinolide 0.4 mg/kg
Source text: (§3) 1. Comprehensive Test on Growth Regulation, Disease Resistance, and Yield Increase for Oat by Thidiazuron Combined with Brassinolide in Field
(§4) Application time: filling stage of oat, because diseases such as powdery mildew easily take place during the earing period.
(§5) Time of application: 1. Formulation examples of the present invention were sprayed, and the results were an average of three replicates.

[4] = test system: powdery mildew of oat; assay: Disease index and prevention effect on powdery mildew in the oat field test; settings: Examples 5.4 mg/kg, thidiazuron 5.0 mg/kg, brassinolide 0.4 mg/kg
Source text: as §3, §4, §5

[5] = early tasselling stage, vs water control, brassinolide 0.3 mg/kg
[6] = maturity and harvest period, brassinolide 0.3 mg/kg
[7] = maturity and harvest period, vs water control, brassinolide 0.3 mg/kg

O=C(Nc1ccccc1)Nc1cnns1 [Thidiazuron, thidiazuron]
Plant height ([1]; early tasselling stage, 2 sprays on stems and leaves, 8 days apart, brassinolide 0.3 mg/kg (active ingredient)): 120.4 cm | Stem diameter ([1]; early tasselling stage, brassinolide 0.3 mg/kg): 2.56 cm | Control rate (plant height) [1, 5]: 3.4% | Increase rate (stem diameter) [1, 5]: 2.4% | Weight of 1000 grains [1, 6]: 22.1 | Yield [1, 6]: 555.8 kg/667M^2 | Increase rate (weight of 1000 grains) [1, 7]: 3.6% | Increase rate (yield per mu) [1, 7]: 3.5% | Disease index of leaf blight [2]: 10.4 | Prevention effect (leaf blight) ([2]; vs water control): 24.1% | Plant height ([3]; 1 spray at filling stage, average of three replicates): 120.1 cm | Stem diameter [3]: 2.38 mm | Weight of 1000 grains [3]: 35.73 | Yield [3]: 627.3 667M2 | Control rate (plant height) ([3]; vs water control): 4.5% | Increase rate (stem diameter) ([3]; vs water control): 3.2% | Increase rate (weight of 1000 grains) ([3]; vs water control): 4.2% | Increase rate (yield) ([3]; vs water control): 4.3% | Disease index of powdery mildew [4]: 13.16 | Prevention effect (powdery mildew) ([4]; vs water control): 13.3%

Reference: patent publication US20180325115A1, “PLANT GROWTH REGULATOR COMPOSTION HAVING SYNERGISTIC EFFECT” (JIANGSU HUIFENG BIO AGRICULTURE CO., LTD., priority 2015, published 2018)
